Measured values as given in BigSolDB 2.1.

CO[C@H]1/C=C/O[C@@]2(C)Oc3c(C)c(O)c4c(O)c(c(/C=N/N5CCN(C6CCCC6)CC5)c(O)c4c3C2=O)NC(=O)/C(C)=C\C=C\[C@H](C)[C@H](O)[C@@H](C)[C@@H](O)[C@@H](C)[C@H](OC(C)=O)[C@@H]1C
solubility (mole fraction)
Conditions	278.15 K	283.15 K	288.15 K	293.15 K	297.15 K	303.15 K	308.15 K	313.15 K	318.15 K	323.15 K
in acetone	0.000523	0.00053	0.000536	0.000549	0.000563	0.000576	0.000609	0.000635	0.000668	0.000701
in chloroform	0.0254	0.0265	0.0281	0.0287	0.0293	0.0299	0.0308	0.0316	0.0326	0.0334
in dichloromethane	0.0159	0.0165	0.0175	0.0184	0.0196	0.0209	0.0224	–	–	–
in ethanol	0.000515	0.000525	0.000541	0.000562	0.000583	0.000604	0.000625	0.000651	0.000677	0.000703
in methanol	0.022	0.0224	0.0229	0.0235	0.0242	0.0249	0.0257	0.0267	0.0278	0.029
